Where two headings read alike, the source gives them in different places.
Tested on: MDD patients carrying the indicated conditions
Conditions: with SSRI
Procedure: Folate levels are classified as either low (<=2.5 ng/ml) or normal; and homocysteine levels as either normal or elevated (>=[…]). The presence or absence of at least one […] allele for the MTHFR gene are entered as a dichotomous variable (present or absent). […] Using folate as an example predicator, the presence or absence of a low serum-folate level along with treatment assignment can be entered in a 2×2, factorial ANOVA, using depression improvement scores (baseline minus endpoint HAM-D-17 scores) as the dependant variable. […] Similar analyses (i.e. separate 2×2 ANOVA's) can be performed substituting the presence of low folate levels for the presence of other predictors as described herein. Similarly, the effect of other predictors can be indicated by the interaction term representing the potential modulating influence of those variables.
Particularly, specific genetic and biomarkers that were assessed include the following: • (a) BMI calculation of at least about 30 kg/m^2; • (b) an expression ratio of SAM/SAH smaller than 2.8 (e.g., 2.71) as measured in a plasma sample; • (c) a level of 4-HNE no less than 3.28 μg/mL (as measured in a plasma sample); • (d) presence of rare variants CT or TT at position 677 of SEQ ID NO: 1 corresponding to a portion of a genomic nucleic acid sequence of methylenetetrahydrofolate reductase (MTHFR) (abbreviated as “MTHFR 677” below); • (e) presence of rare variants AG or GG at position 2756 of SEQ ID NO: 2 corresponding to a portion of genomic nucleic acid sequence of methionine synthase (MTR) (abbreviated as “MTR 2756” below); and • (f) presence of rare variants AG or GG at position 66 of SEQ ID NO: 3 corresponding to a portion of genomic nucleic acid sequence of methionine synthase reductase (MTRR) (abbreviated as “MTRR 66” below).
The efficacy effect is determined by measuring the mean change in the HAMD-17 score and HAMD-28 score by the end of Phase I and Phase II, as compared to the baseline.

[1] = Phase I, interaction of BMI with the treatment
[2] = Phase I, interaction of HNE-his with the treatment
[3] = Phase I, interaction of SAM/SAH with the treatment
[4] = Phase II, 25 =< BMI < 30 kg/m^2 (18, 10)

In the case of CN1c2c(nc(N)[nH]c2=O)NC[C@@H]1CNc1ccc(C(=O)N[C@@H](CCC(=O)O)C(=O)O)cc1 [6(S)-5-MTHF, 6(S)-5-methyltetrahydrofolate], the “Effect, change in HAMD-17 score” value (Phase I, MTRR 66 AA and HNE-His < median (8,5)) is reported as −1.167, the “Effect, change in HAMD-28 score” value (Phase I, MTRR 66 AA and HNE-His < median = 3.28 (plasma sample)) is reported as −4.167 and the “Effect, change in HAMD-17 score” value (Phase I, MTRR 66 AA and SAM/SAH >= median (9,6)) is reported as −0.125. The “Effect, change in HAMD-28 score” value (Phase I, MTRR 66 AA and SAM/SAH >= median) was 0.500, the “Effect, change in HAMD-17 score” value (Phase I, MTRR 66 AG or GG and HNE-His >= median (24,11)) was −5.958 and the “Effect, change in HAMD-28 score” value (Phase I, MTRR 66 AG or GG and HNE-His >= median) was −6.975. The “Effect, change in HAMD-17 score” value (Phase I, MTRR 66 AG or GG and SAM/SAH < median (24,10)) was −5.062, the “Effect, change in HAMD-28 score” value (Phase I, MTRR 66 AG or GG and SAM/SAH < median = 2.71 (plasma sample)) was −6.498 and the “Effect, change in HAMD-17 score” value (Phase I, SAM/SAH < median and HNE-His >= median (19,7)) was −3.670. For the same compound, the “Effect, change in HAMD-28 score” value (Phase I, SAM/SAH < median and HNE-His >= median) was −4.227, the “Effect, change in HAMD-17 score” value (Phase I, SAM/SAH >= median and HNE-His < median (18,8)) was −0.250 and the “Effect, change in HAMD-28 score” value (Phase I, SAM/SAH >= median and HNE-His < median) was −0.750. The “Effect, change in HAMD-17 score: BMI*treat” value [1] was −0.567, the “Effect, change in HAMD-28 score: BMI*treat” value [1] was −0.668 and the “Effect, change in HAMD-17 score: HNE-his*treat” value [2] was −0.465. For the same compound, the “Effect, change in HAMD-28 score: HNE-his*treat” value [2] was −0.133, the “Effect, change in HAMD-17 score: SAM/SAH*treat” value [3] was 0.495 and the “Effect, change in HAMD-28 score: SAM/SAH*treat (last line)” value [3] was 0.972. For the same compound, the “Effect, change in HAMD-17 score: baseHAMD-17*treat” value (Phase I, interaction of base HAMD-17 with the treatment) was 0.165, the “Effect, change in HAMD-28 score: SAM/SAH*treat (first line under HAMD28)” value (Phase I, interaction with the treatment) was 0.495 and the “Effect, change in HAMD-17 score” value [4] was 2.000. For the same compound, the “Effect, change in HAMD-28 score” value [4] was 0.000, the “Effect, change in HAMD-17 score” value (Phase II, BMI < 25 (14, 7)) was −1.400 and the “Effect, change in HAMD-28 score” value (Phase II, BMI < 25 (14, 7)) was −2.300. For the same compound, the “Effect, change in HAMD-17 score” value (Phase II, BMI < 30 kg/m^2 and HNE-His < median (19, 9)) was 3.667, the “Effect, change in HAMD-28 score” value (Phase II, BMI < 30 kg/m^2 and HNE-His < median) was 1.833 and the “Effect, change in HAMD-17 score” value (Phase II, BMI < 30 kg/m^2 and SAM/SAH >= median (16,8)) was 1.500. The “Effect, change in HAMD-28 score” value (Phase II, BMI < 30 kg/m^2 and SAM/SAH >= median) was 2.500, the “Effect, change in HAMD-28 score” value (Phase II, BMI >= 30 kg/m^2 (40,21)) was −3.245 and the “Effect, change in HAMD-17 score” value (Phase II, BMI >= 30 kg/m^2 and HNE-His >= median (23, 11)) was −4.233. The “Effect, change in HAMD-28 score” value (Phase II, BMI >= 30 kg/m^2 and HNE-His >= median) was −4.933, the “Effect, change in HAMD-17 score” value (Phase II, BMI >= 30 kg/m^2 and SAM/SAH < median (21,9)) was −9.200 and the “Effect, change in HAMD-28 score” value (Phase II, BMI >= 30 kg/m^2 and SAM/SAH < median = 2.71 (plasma sample)) was −10.350. The “Effect, change in HAMD-17 score” value (Phase II, MTHFR 677 CC and BMI < 30 kg/m^2 (17,8)) was −2.267, the “Effect, change in HAMD-28 score” value (Phase II, MTHFR 677 CC and BMI < 30 kg/m^2) was −3.000 and the “Effect, change in HAMD-17 score” value (Phase II, MTHFR 677 CC and HNE-His < median (20,11)) was −0.857. For the same compound, the “Effect, change in HAMD-28 score” value (Phase II, MTHFR 677 CC and HNE-His < median = 3.28 (plasma sample)) was −0.536, the “Effect, change in HAMD-17 score” value (Phase II, MTHFR 677 CC and MTR 2756 AA (29,13)) was −0.571 and the “Effect, change in HAMD-28 score” value (Phase II, MTHFR 677 CC and MTR 2756 AA) was 0.048. The “Effect, change in HAMD-17 score” value (Phase II, MTHFR 677 CT or TT and BMI >= 30 kg/m^2 (13,6)) was −7.333, the “Effect, change in HAMD-28 score” value (Phase II, MTHFR 677 CT or TT and BMI >= 30 kg/m^2) was −8.667 and the “Effect, change in HAMD-17 score” value (Phase II, MTHFR 677 CT or TT and HNE-His >= median (11,6)) was −7.500. The “Effect, change in HAMD-28 score” value (Phase II, MTHFR 677 CT or TT and HNE-His >= median) was −7.500, the “Effect, change in HAMD-17 score” value (Phase II, MTHFR 677 CT or TT and MTR 2756 AG or GG (8,4)) was −10.33 and the “Effect, change in HAMD-28 score” value (Phase II, MTHFR 677 CT or TT and MTR 2756 AG or GG) was −13.00. The “Effect, change in HAMD-17 score” value (Phase II, MTR 2756 AA (45,21)) was −0.427, the “Effect, change in HAMD-17 score” value (Phase II, MTR 2756 AA and BMI < 30 kg/m^2 (17,7)) was 1.167 and the “Effect, change in HAMD-28 score” value (Phase II, MTR 2756 AA and BMI < 30 kg/m^2) was 0.917. The “Effect, change in HAMD-17 score” value (Phase II, MTR 2756 AA and HNE-His < median (26,13)) was 0.300, the “Effect, change in HAMD-28 score” value (Phase II, MTR 2756 AA and HNE-His < median) was −0.125 and the “Effect, change in HAMD-17 score” value (Phase II, MTR 2756 AA and MTRR 66 AA (11,5)) was −8.000. The “Effect, change in HAMD-17 score” value (Phase II, MTR 2756 AA and MTRR 66 AA and BMI < 30 kg/m^2 (7,4)) was −4.333, the “Effect, change in HAMD-28 score” value (Phase II, MTR 2756 AA and MTRR 66 AA and BMI < 30 kg/m^2) was −4.667 and the “Effect, change in HAMD-17 score” value (Phase II, MTR 2756 AA and MTRR 66 AA and HNE-His < median (6,4)) was −8.667. The “Effect, change in HAMD-28 score” value (Phase II, MTR 2756 AA and MTRR 66 AA and HNE-His < median = 3.28 (plasma sample)) was −9.000, the “Effect, change in HAMD-17 score” value (Phase II, MTR 2756 AA and MTRR 66 AA and SAM/SAH >= median (6,3)) was −7.000 and the “Effect, change in HAMD-28 score” value (Phase II, MTR 2756 AA and MTRR 66 AA and SAM/SAH >= median) was −7.500.

— US9540691B2, “Assays and methods for selecting a treatment regimen for a subject with depression” (THE GENERAL HOSPITAL CORPORATION, priority 2011, dated 2017)
